Results as given in patent US20050209256A1, “Novel beta-turn mimetics as calcitonin gene related peptide receptor antagonists” (priority 2004, published 2005).

Target: T1, human CGRP receptor (Homo sapiens, UniProt O60894+Q16602)
T1 construct: SK-N-MC cells that endogenously express the human CGRP receptor; endogenous in cells; host or cells: SK-N-MC cells (membrane homogenates)
Assay: Radioligand binding assay, [125I]-CGRP competition on SK-N-MC cell homogenates
Conditions: Binding data, [125I]-CGRP 40 pM, room temperature
Protocol: Tissue culture. SK-N-MC cells were grown at 37° C. in 5% CO2 as a monolayer in medium consisting of MEM with Earle's salts and L-glutamine (Gibco) supplemented with 10% fetal bovine serum (Gibco).
Radioligand binding assays. Cells were rinsed twice with phosphate-buffered saline (155 mM NaCl, 3.3 mM Na2HPO4, 1.1 mM KH2PO4, pH 7.4), and incubated for 5-10 min. at 4° C. in hypotonic lysis buffer consisting of 10 mM Tris (pH 7.4) and 5 mM EDTA. Cells were transferred from plates to polypropylene tubes (16×100 mm), homogenized and centrifuged at 32,000×g for 30 min. Pellets were resuspended in buffer consisting of 50 mM Tris (pH 7.4) and 1 mM EDTA, homogenized, and centrifuged again at 32,000×g for 30 min. Pellets were resuspended in 100 mM Tris-Cl pH 7.5, 10 mM MgCl2, 0.1% mammalian protease inhibitor cocktail (Sigma) and stored at −80° C. until needed. On the day of an experiment, homogenates were thawed and homogenized again. Binding of [^125I]-CGRP (NEN) was carried out in buffer containing 50 mM Tris-Cl pH 7.5, 5 mM MgCl2, 0.5% BSA. Homogenates (3.5 μg protein/well) were incubated with competitor compounds (solubilized in 100% DMSO at 100× their final assay concentrations) for one hour at room temperature. Then [^125I]-CGRP was added (40 pM final concentration) and the reaction incubated for one additional hour at room temperature. Assays were stopped by addition of cold wash buffer (20 mM Tris-Cl pH 7.5, 0.1% BSA) immediately followed by filtration over glass fiber filters (Whatman GF/B) previously soaked in 0.5% PEI. Non-specific binding was defined with 100 nM CGRP.

Row | Compound | IC50
1 | CC(=O)c1ccc(NC(=O)N2CCC(=O)N3[C@@H]2CN(CCc2cccc(F)c2)C(=O)[C@@H]3C)cc1 [Compound 25, (6S,9aS)-8-[2-(3-Fluoro-phenyl)-ethyl]-6-methyl-4,7-dioxo-hexahydro-pyrazino[1,2-a]pyrimidine-1-carboxylic acid (4-acetyl-phenyl)-amide] | 30000 nM
2 | CC(=O)c1ccc(NC(=O)N2CCC(=O)N3[C@@H]2CN(CCc2cccc(F)c2)C(=O)[C@@H]3Cc2ccc([N+](=O)[O-])cc2)cc1 [Compound 27, (6S,9aS)-8-[2-(3-Fluoro-phenyl)-ethyl]-6-(4-nitro-benzyl)-4,7-dioxo-hexahydro-pyrazino[1,2-a]pyrimidine-1-carboxylic acid (4-acetyl-phenyl)-amide] | 1330 nM
3 | CSCC[C@H]1C(=O)N(CCc2cccc(F)c2)C[C@@H]2N(C(=O)Nc3ccc(C(C)=O)cc3)CCC(=O)N21 [Compound 24, (6S,9aS)-8-[2-(3-Fluoro-phenyl)-ethyl]-6-(2-methylsulfanyl-ethyl)-4,7-dioxo-hexahydro-pyrazino[1,2-a]pyrimidine-1-carboxylic acid (4-acetyl-phenyl)-amide] | 213 nM
4 | CC(=O)c1ccc(NC(=O)N2CCC(=O)N3[C@@H]2CN(CCc2cccc(F)c2)C(=O)[C@@H]3CCS(C)(=O)=O)cc1 [Compound 36, (6S,9aS)-8-[2-(3-Fluoro-phenyl)-ethyl]-6-(2-methanesulfonyl-ethyl)-4,7-dioxo-hexahydro-pyrazino[1,2-a]pyrimidine-1-carboxylic acid (4-acetyl-phenyl)-amide] | 350 nM
5 | CC(=O)c1ccc(NC(=O)N2CCC(=O)N3[C@@H]2CN(CCc2cccc(F)c2)C(=O)[C@@H]3CCC(N)=O)cc1 [Compound 40, (6S,9aS)-6-(2-Carbamoyl-ethyl)-8-[2-(3-fluoro-phenyl)-ethyl]-4,7-dioxo-hexahydro-pyrazino[1,2-a]pyrimidine-1-carboxylic acid (4-acetyl-phenyl)-amide] | 2360 nM
6 | CC(=O)c1ccc(NC(=O)N2CCC(=O)N3[C@@H](c4ccc(F)c(F)c4)C(=O)N(CCc4ccccc4)C[C@H]23)cc1 [Compound 59, (6S,9aS)-6-(3,4-Difluoro-phenyl)-4,7-dioxo-8-phenethyl-hexahydro-pyrazino[1,2-a]pyrimidine-1-carboxylic acid (4-acetyl-phenyl)-amide] | 271 nM
7 | CC(=O)c1ccc(NC(=O)N2CCC(=O)N3[C@@H]2CN(CCc2cccc(F)c2)C(=O)[C@@H]3CC[S+](C)[O-])cc1 (mixture of isomers) [Compound 42, (6S,9aS)-8-[2-(3-Fluoro-phenyl)-ethyl]-6-(2-methanesulfinyl-ethyl)-4,7-dioxo-hexahydro-pyrazino [1,2-a]pyrimidine-1-carboxylic acid (4-acetyl-phenyl)-amide] | 778 nM
8 | CSc1ccc(NC(=O)N2CCC(=O)N3[C@@H](C4CCCCC4)C(=O)N(CCc4ccccc4)C[C@H]23)cc1 [Compound 19, (6S,9aS)-6-Cyclohexyl-4,7-dioxo-8-phenethyl-hexahydro-pyrazino[1,2-a]pyrimidine-1-carboxylic acid (4-methylsulfanyl-phenyl)-amide] | 8000 nM
9 | CC(=O)c1ccc(NC(=O)N2CCC(=O)N3[C@@H]2CN(CCc2cccc(F)c2)C(=O)[C@@H]3CC2CCCCC2)cc1 [Compound 28, (6S,9aS)-6-Cyclohexylmethyl-8-[2-(3-fluoro-phenyl)-ethyl]-4,7-dioxo-hexahydro-pyrazino[1,2-a]pyrimidine-1-carboxylic acid (4-acetyl-phenyl)-amide] | 188 nM
10 | CC(=O)c1ccc(NC(=O)N2CCC(=O)N3[C@@H]2CN(CCc2cccc(F)c2)C(=O)[C@@H]3Cc2ccc(F)c(F)c2)cc1 [Compound 62, (6S,9aS)-6-(3,4-Difluoro-benzyl)-8-[2-(3-fluoro-phenyl)-ethyl]-4,7-dioxo-hexahydro-pyrazino[1,2-a]pyrimidine-1-carboxylic acid (4-acetyl-phenyl)-amide] | 624 nM

Results, then the molecule that gave them:

Row | IC50 | Compound
11 | 2440 nM | CC(=O)c1ccc(NC(=O)N2CCC(=O)N3[C@@H](C4CCCCC4)C(=O)N(CCc4cccnc4)C[C@H]23)cc1 [Compound 140, (6S,9aS)-6-Cyclohexyl-4,7-dioxo-8-(2-pyridin-3-yl-ethyl)-hexahydro-pyrazino[1,2-a]pyrimidine-1-carboxylic acid (4-acetyl-phenyl)-amide]
12 | 87 nM | CC(=O)c1ccc(NC(=O)N2CCC(=O)N3[C@@H](C4CCCCC4)C(=O)N(CCc4cccs4)C[C@H]23)cc1 [Compound 138, (6S,9aS)-6-Cyclohexyl-4,7-dioxo-8-(2-thiophen-2-yl-ethyl)-hexahydro-pyrazino[1,2-a]pyrimidine-1-carboxylic acid (4-acetyl-phenyl)-amide]
13 | 517 nM | CC(=O)c1ccc(NC(=O)N2CCC(=O)N3[C@@H]2CN(CCc2ccccc2)C(=O)[C@@H]3CC2CCCCC2)cc1 [Compound 65, (6S,9aS)-6-Cyclohexylmethyl-4,7-dioxo-8-phenethyl-hexahydro-pyrazino[1,2-a]pyrimidine-1-carboxylic acid (4-acetyl-phenyl)-amide]
14 | 2730 nM | CC(O)c1ccc(NC(=O)N2CCC(=O)N3[C@@H]2CN(CCc2ccccc2)C(=O)[C@@H]3CC2CCCCC2)cc1 (stereo partly drawn) [Compound 145, (6S,9aS)-6-Cyclohexylmethyl-4,7-dioxo-8-phenethyl-hexahydro-pyrazino[1,2-a]pyrimidine-1-carboxylic acid [4-(1-hydroxy-ethyl)-phenyl]-amide]
15 | 473 nM | CC(=O)c1ccc(NC(=O)N2CCC(=O)N3[C@@H](c4ccccc4)C(=O)N(CCc4ccccc4)C[C@H]23)cc1 [Compound 64, (6S,9aS)-4,7-Dioxo-8-phenethyl-6-phenyl-hexahydro-pyrazino[1,2-a]pyrimidine-1-carboxylic acid (4-acetyl-phenyl)-amide]
